Two compounds from EP4329743B1 (priority 2021, dated 2022) can be followed below.

Data set [1] deals with Neuraminidase (EC 3.2.1.18). The data set is described as follows: Neuraminidase activity assay (colorimetric kit, Sigma Aldrich MAK121). As to conditions: maximum activity set 100%; mean of three independent experiments; Figure 4. The format is biochemical. The protocol: Neuraminidase (EC 3.2.1.18) also known as sialidase is an enzyme that hydrolyzes terminal sialic acid residues on polysaccharide chains. It is predominantly expressed on the surface of viruses and bacteria. For activity measurement, the activity was measured using the neuraminidase activity kit from Sigma Aldrich (Cat.No.: MAK121). Accordingly, the neuraminidase activity is determined by an enzymatic essay in which the sialic acid released by neuraminidase results in the colorimetric product directly proportional to neuraminidase activity in the sample. The reaction master mixture contained assay buffer, (+/-) substrate, cofactors, neuraminidase, and dye-reagent. The activity is expressed as units/L and maximum activity was arbitrarily set 100%. The effect of ethyl pyruvate and ethyl lactate on enzyme activity was evaluated by comparing the change of the absorbance against the samples with substrate (maximum activity) and without the substrate (blank).

In data set [2] the test system is inflammatory cytokines such as TNF-alpha, IL-1β, IL-6 and IL-8. The data set is described as follows: Release of inflammatory cytokines from LPS-stimulated human whole blood (cytometric bead array). Format: cell-based. As to conditions: whole blood diluted 1:5, LPS 10ng/ml, 1 to 20 mM, 6 h; Figure 6. The protocol:
Human heparinized whole blood was diluted with RPMI 1640 medium (ThermoFisher Scientific) (1:5) and incubated with LPS (10ng/ml) and increasing concentration of ethyl pyruvate (A-D) or ethyl lactate (E-H) (1 to 20 mM) for 6 h at 37°C with 5% CO2. Following incubation, the plates were centrifuged at 2000g for 10 min and the proinflammatory cytokines were analysed by cytometric bead array using a FACSCalibur and the CellQuestTMSoftware (BD Biosciences).

Another data set deals with influenza virus H9N2. Format: cell-based. The conditions noted are these: MDCK II cells, H9N2, 1 h infection, 2 days culture; ethyl pyruvate 42 mM; Figure 5.

`CCOC(=O)C(C)O` (centres unmarked) [ethyl lactate]: the activity of neuraminidase result in data set [1] was “only minimum inhibitory effect”. For the same compound, the “toxic effect on MDCK II cells” value in the data set with MDCK II cells is reported as “no toxic effect”. In addition, in data set [2], the “release of inflammatory cytokines (TNF-alpha, IL-1β, IL-6, IL-8)” value was “effectively inhibited”. In addition, the “cytopathic effect of the influenza virus (cellular structures and confluency)” value in the data set on influenza virus H9N2 was “does not protect MDCK II cells from the cytopathic effect of the virus”.
For `CCOC(=O)C(C)=O` [ethyl pyruvate, Ethyl pyruvate], in data set [1], the activity of neuraminidase entry is listed as “inhibits activity of neuraminidase in a concentration-dependent manner”. For the same compound, the “toxic effect on MDCK II cells” value with MDCK II cells is “no toxic effect”. The “release of inflammatory cytokines (TNF-alpha, IL-1β, IL-6, IL-8)” value in data set [2] is “effectively inhibited”. Further, in the data set on influenza virus H9N2, the “cytopathic effect of the influenza virus (cellular structures and confluency)” value was “the cellular structures and confluency is preserved”.
